Measured values from patent US5602239A, “5-O-desosaminylerythronolide derivatives” (Taisho Pharmaceutical Co., Ltd., priority 1993, dated 1997).
≈ marks a conversion by molar mass, not a printed value.

Tests used:
Assay type in all cases: cell-based
[1] = tested on: S. aureus 209P-JC; assay: In vitro antibacterial activity (MIC), S. aureus 209P-JC; details: Staphylococcus aureus, sensitive disc media, Japan Society of Chemotherapy method, read-out: MIC value (Minimum Inhibitory Concentration)
Experimental: (§1) The in vitro antibacterial activity of the compound of the present invention obtained in Example 9 against various experimental bacteria was measured using sensitive disc media (produced by Eiken Chemical Co.) according to the MIC measuring method specified by the Japan Society of Chemotherapy. 6-O-Methylerythromycin A was used as a comparative drug.

[2] = tested on: S. aureus Smith 4; assay: In vitro antibacterial activity (MIC), S. aureus Smith 4; details: Staphylococcus aureus, SMITH4, sensitive disc media, Japan Society of Chemotherapy method, read-out: MIC value (Minimum Inhibitory Concentration)
Experimental: as §1

[3] = tested on: S. epidermides IID 866; assay: In vitro antibacterial activity (MIC), S. epidermides IID 866; details: sensitive disc media, Japan Society of Chemotherapy method, read-out: MIC value (Minimum Inhibitory Concentration)
Experimental: as §1

[4] = tested on: E. faecalis CSJ 1212; assay: In vitro antibacterial activity (MIC), E. faecalis CSJ 1212; details: Enterococcus faecalis, CSJ1212, sensitive disc media, Japan Society of Chemotherapy method, read-out: MIC value (Minimum Inhibitory Concentration)
Experimental: as §1

[5] = tested on: S. aureus B1; assay: In vitro antibacterial activity (MIC), S. aureus B1; details: Staphylococcus aureus, sensitive disc media, Japan Society of Chemotherapy method, read-out: MIC value (Minimum Inhibitory Concentration)
Experimental: as §1

SMILES	MIC [1] [µg/mL]	MIC [2] [µg/mL]	MIC [3] [µg/mL]	MIC [4] [µg/mL]	MIC [5] [µg/mL]
CC[C@H]1OC(=O)[C@H](C)[C@@H](Oc2ccc([N+](=O)[O-])cc2[N+](=O)[O-])[C@H](C)[C@@H](O[C@@H]2O[C@H](C)C[C@H](N(C)C)[C@H]2O)[C@](C)(OC)C[C@@H](C)C(=O)[C@H](C)[C@H]2OC(=O)O[C@@]21C [Example 9, 3-O-(2,4-dinitro)phenyl-5-O-desosaminyl-6-O-methylerythronolide A 11,12-cyclic carbonate]	0.1 (≈ 0.128 µM)	0.1 (≈ 0.128 µM)	0.1 (≈ 0.128 µM)	0.2 (≈ 0.256 µM)	0.78 (≈ 0.998 µM)
CC[C@H]1OC(=O)[C@H](C)[C@@H](O[C@H]2C[C@@](C)(OC)[C@@H](O)[C@H](C)O2)[C@H](C)[C@@H](O[C@@H]2O[C@H](C)C[C@H](N(C)C)[C@H]2O)[C@](C)(OC)C[C@@H](C)C(=O)[C@H](C)[C@@H](O)[C@]1(C)O [Comparative drug, 6-O-Methylerythromycin A]	0.1 (≈ 0.134 µM)	0.1 (≈ 0.134 µM)	0.1 (≈ 0.134 µM)	0.78 (≈ 1.04 µM)	> 100
